Assay: xn = mol fraction of the nth substance listed
Conditions: 101 kPa, Liquid

CN(C)c1ccccc1 [N,N-dimethylaniline] + C1COCCO1
Conditions	mass density [kg/m3]	viscosity [mPa·s]
283.15 K, x2 = 0.3099	990.33	1.68
283.15 K, x2 = 0.4246	998.33	1.66
283.15 K, x2 = 0.5302	1005.32	1.637
283.15 K, x2 = 0.6278	1013.42	1.629
283.15 K, x2 = 0.7182	1019.31	1.607
283.15 K, x2 = 0.7749	1025.23	1.606
283.15 K, x2 = 0.8551	1034.31	1.602
283.15 K, x2 = 0.9081	1040.92	1.591
283.15 K, x2 = 0.9538	1043.01	1.588
293.15 K, x2 = 0.3099	980.73	1.424
293.15 K, x2 = 0.4246	989.12	1.428
293.15 K, x2 = 0.5302	995.81	1.37
293.15 K, x2 = 0.6278	1003.54	1.362
293.15 K, x2 = 0.7182	1011.33	1.345
293.15 K, x2 = 0.7749	1016.79	1.339
293.15 K, x2 = 0.8551	1023.65	1.326
293.15 K, x2 = 0.9081	1031.25	1.33
293.15 K, x2 = 0.9538	1035.34	1.327
303.15 K, x2 = 0.3099	973.4	1.199
303.15 K, x2 = 0.4246	980.12	1.182
303.15 K, x2 = 0.5302	986.56	1.166
303.15 K, x2 = 0.6278	993.63	1.157
303.15 K, x2 = 0.7182	1001.04	1.142
303.15 K, x2 = 0.7749	1005.98	1.136
303.15 K, x2 = 0.8551	1014.07	1.131
303.15 K, x2 = 0.9081	1019.01	1.124
303.15 K, x2 = 0.9538	1024.82	1.122
313.15 K, x2 = 0.3099	963.88	1.029
313.15 K, x2 = 0.4246	970.47	1.025
313.15 K, x2 = 0.5302	977.93	1.01
313.15 K, x2 = 0.6278	984.4	1.002
313.15 K, x2 = 0.7182	991.21	0.987
313.15 K, x2 = 0.7749	995.85	0.984
313.15 K, x2 = 0.8551	1003.65	0.976
313.15 K, x2 = 0.9081	1008.93	0.965
313.15 K, x2 = 0.9538	1014.66	0.968
323.15 K, x2 = 0.3099	955.01	0.912
323.15 K, x2 = 0.4246	961.76	0.901
323.15 K, x2 = 0.5302	968.52	0.886
323.15 K, x2 = 0.6278	974.24	0.879
323.15 K, x2 = 0.7182	981.34	0.872
323.15 K, x2 = 0.7749	985.13	0.861
323.15 K, x2 = 0.8551	993.17	0.857
323.15 K, x2 = 0.9081	997.95	0.848
323.15 K, x2 = 0.9538	1002.4	0.845
333.15 K, x2 = 0.3099	945.84	0.811
333.15 K, x2 = 0.4246	953.15	0.798
333.15 K, x2 = 0.5302	958.78	0.786
333.15 K, x2 = 0.6278	964.37	0.779
333.15 K, x2 = 0.7182	971.52	0.771
333.15 K, x2 = 0.7749	974.75	0.763
333.15 K, x2 = 0.8551	983.43	0.761
333.15 K, x2 = 0.9081	986.57	0.75
333.15 K, x2 = 0.9538	991.84	0.751
343.15 K, x2 = 0.3099	936.89	0.725
343.15 K, x2 = 0.4246	944.04	0.716
343.15 K, x2 = 0.5302	948.37	0.71
343.15 K, x2 = 0.6278	954.22	0.711
343.15 K, x2 = 0.7182	962.15	0.689
343.15 K, x2 = 0.7749	964.44	0.683
343.15 K, x2 = 0.8551	971.97	0.678
343.15 K, x2 = 0.9081	977.83	0.674
343.15 K, x2 = 0.9538	980.14	0.67

CN(C)c1ccccc1 [N,N-dimethylaniline] + CCCCCCO
Conditions	mass density [kg/m3]	viscosity [mPa·s]
283.15 K, x2 = 0.1009	958.16	1.749
283.15 K, x2 = 0.2017	944.54	1.867
283.15 K, x2 = 0.3022	928.83	2.079
283.15 K, x2 = 0.4025	915.52	2.306
283.15 K, x2 = 0.5026	904.21	2.676
283.15 K, x2 = 0.6025	890.94	3.092
283.15 K, x2 = 0.7022	876.26	3.708
283.15 K, x2 = 0.8016	861.23	4.614
283.15 K, x2 = 0.9009	848.23	5.687
293.15 K, x2 = 0.1009	950	1.448
293.15 K, x2 = 0.2017	936.43	1.527
293.15 K, x2 = 0.3022	920.62	1.667
293.15 K, x2 = 0.4025	909.23	1.837
293.15 K, x2 = 0.5026	896.74	2.086
293.15 K, x2 = 0.6025	882.6	2.359
293.15 K, x2 = 0.7022	868.6	2.821
293.15 K, x2 = 0.8016	852.26	3.401
293.15 K, x2 = 0.9009	841.25	4.138
303.15 K, x2 = 0.1009	942.24	1.221
303.15 K, x2 = 0.2017	928.31	1.276
303.15 K, x2 = 0.3022	912.67	1.38
303.15 K, x2 = 0.4025	901.18	1.496
303.15 K, x2 = 0.5026	888.09	1.668
303.15 K, x2 = 0.6025	875.63	1.891
303.15 K, x2 = 0.7022	860.74	2.16
303.15 K, x2 = 0.8016	846.02	2.585
303.15 K, x2 = 0.9009	832.65	3.101
313.15 K, x2 = 0.1009	933.77	1.051
313.15 K, x2 = 0.2017	920.41	1.086
313.15 K, x2 = 0.3022	904.59	1.16
313.15 K, x2 = 0.4025	892.85	1.246
313.15 K, x2 = 0.5026	879.8	1.369
313.15 K, x2 = 0.6025	867.83	1.524
313.15 K, x2 = 0.7022	852.77	1.732
313.15 K, x2 = 0.8016	839.15	2.023
313.15 K, x2 = 0.9009	824.98	2.37
323.15 K, x2 = 0.1009	925.31	0.917
323.15 K, x2 = 0.2017	912.27	0.939
323.15 K, x2 = 0.3022	896.34	0.992
323.15 K, x2 = 0.4025	885.58	1.056
323.15 K, x2 = 0.5026	872.2	1.138
323.15 K, x2 = 0.6025	859.03	1.269
323.15 K, x2 = 0.7022	843.94	1.404
323.15 K, x2 = 0.8016	831.15	1.61
323.15 K, x2 = 0.9009	818.33	1.869
333.15 K, x2 = 0.1009	916.93	0.812
333.15 K, x2 = 0.2017	905.29	0.826
333.15 K, x2 = 0.3022	887.96	0.861
333.15 K, x2 = 0.4025	876.93	0.908
333.15 K, x2 = 0.5026	864.04	0.971
333.15 K, x2 = 0.6025	849.87	1.044
333.15 K, x2 = 0.7022	837.74	1.157
333.15 K, x2 = 0.8016	823.68	1.31
333.15 K, x2 = 0.9009	810.66	1.423
343.15 K, x2 = 0.1009	909.05	0.774
343.15 K, x2 = 0.2017	895.76	0.731
343.15 K, x2 = 0.3022	880	0.737
343.15 K, x2 = 0.4025	867.83	0.79
343.15 K, x2 = 0.5026	854.24	0.83
343.15 K, x2 = 0.6025	842.51	0.902
343.15 K, x2 = 0.7022	829.06	0.973
343.15 K, x2 = 0.8016	813.99	1.08
343.15 K, x2 = 0.9009	803.44	1.218

From the NIST ThermoML archive (doi:10.1021/je700344f)
